Consider 40 compounds from patent publication US9890138B2, “Diaminopyrimidine derivatives and processes for the preparation thereof” (YUHAN CORPORATION, priority 2011, dated 2018).

For this test, the target named is T1, human 5-HT4(a) (Homo sapiens, UniProt Q13639).
T1 construct: host or cells: GeneBlAzer HTR4-CRE-bla CHO-K1 cells
Nature of the test: Evaluation of agonistic activity in CHO-K1 cells expressing human 5-HT4(a) (GeneBlAzer HTR4-CRE-bla CHO-K1, beta-lactamase reporter). The test is classed as cell-based. To be noted: CHO-K1 cells stably expressing human 5-HT4(a). The procedure, abridged:
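Agonism read as CRE-driven β-lactamase activity: emission ratio 465/535 nm (excitation 410 nm) after 2 h substrate loading. Preceded by 5 h compound treatment, 8 concentrations, 1% DMSO in the added solution, of overnight-plated reporter CHO-K1 cells; EC50 by non-linear regression.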

Structures can show the parent of a compound that is named as a salt.

T1 sequence (Q13639 1-387 isoform Q13639-2): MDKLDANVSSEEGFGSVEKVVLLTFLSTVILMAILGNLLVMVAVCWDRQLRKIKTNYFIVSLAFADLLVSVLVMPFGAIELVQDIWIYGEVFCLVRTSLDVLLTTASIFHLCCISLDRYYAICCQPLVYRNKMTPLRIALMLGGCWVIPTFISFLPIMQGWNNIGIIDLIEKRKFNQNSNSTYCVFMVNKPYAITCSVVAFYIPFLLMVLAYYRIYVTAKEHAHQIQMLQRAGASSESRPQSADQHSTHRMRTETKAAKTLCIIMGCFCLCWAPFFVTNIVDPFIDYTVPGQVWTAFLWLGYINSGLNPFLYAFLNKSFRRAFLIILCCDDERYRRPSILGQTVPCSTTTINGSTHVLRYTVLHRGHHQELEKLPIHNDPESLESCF

The EC50 is the concentration giving half of the maximal effect. Low readings indicate greater potency, high ones weaker potency. Compound `CCCc1cc(N2CC[C@H](NC(C)=O)C2)nc(Nc2ccc(Cl)c(N)c2)n1` [Example 290] displayed a concentration for a half-maximal effect (EC50) of 0.013 nM.

The compound `CCCCc1cc(N2CCC[C@H]2C)nc(Nc2cccc(C#N)c2)n1` [Example 225] yielded an EC50 of 0.052 nM.

The compound `CCCc1cc(N2CC[C@H](NC(C)CC)C2)nc(Nc2cccc(C#N)c2)n1` (stereo partly drawn) [Example 127, 3-{4-[(3S)-3-(sec-butylamino)pyrrolidin-1-yl]-6-propylpyrimidin-2-ylamino}benzonitrile] displayed an EC50 of 0.0062 nM.

For `CCCc1cc(N2CC[C@H](N)C2)nc(Nc2ccc3cc[nH]c3c2)n1` [Example 346], the EC50 came to 0.014 nM.

The compound `CCCc1cc(N2CC[C@H](NC(C)=O)C2)nc(Nc2ccc(C)c(N)c2)n1` [Example 292, (S)—N-{1-[2-(3-amino-4-methylphenylamino)-6-propylpyrimidin-4-yl]pyrrolidin-3-yl}acetamide] came in with an EC50 of 0.038 nM.

In turn, `CCCc1cc(N2CCC[C@H]2C)nc(Nc2ccc(F)c(C(F)(F)F)c2)n1` [Example 322] displayed an EC50 of 0.15 nM.

Compound `CCCc1cc(N2CCC[C@H]2COC)nc(Nc2ccc3c(c2)NCC3)n1` [Example 368] returned an EC50 of 0.182 nM.

`CCCc1cc(N2CC[C@H](NCCCSC)C2)nc(Nc2ccc(C)c(C#N)c2)n1` [Example 415] came in with an EC50 of 0.015 nM.

`CCCc1cc(N2CC[C@H](NC(=O)CO)C2)nc(Nc2ccc(C)c(C#N)c2)n1` [Example 472, (S)—N-{1-[2-(3-cyano-4-methylphenylamino)-6-propylpyrimidin-4-yl]pyrrolidin-3-yl}-2-hydroxyacetamide] showed an EC50 of 0.0075 nM.

In the case of `CCCCc1cc(N2CC[C@H](NC)C2)nc(Nc2ccc(C)c(C#N)c2)n1` [Example 231], a half-maximal response (EC50) required 0.0067 nM.

Compound `CCCCc1cc(N2CC[C@H](NCC)C2)nc(Nc2cc(N)cc(C(F)(F)F)c2)n1` [Example 466] registered an EC50 of 0.0058 nM.

In turn, `CCCCc1cc(N2CC[C@H](NC(C)=O)C2)nc(Nc2cccc(C#N)c2)n1` [Example 223] yielded an EC50 of 0.011 nM.

Turning to `CCCc1cc(N2CC[C@H](NCC3CC3)C2)nc(Nc2ccc(C)c(N)c2)n1` [Example 383], the EC50 is 0.0057 nM.

As for `CCCC(=O)N[C@H]1CCN(c2cc(CCC)nc(Nc3cccc(C#N)c3)n2)C1` [Example 61, (S)-N-{1-[2-(3-cyanophenylamino)-6-propylpyrimidin-4-yl]pyrrolidin-3-yl}butyramide], it took 0.15 nM to reach a half-maximal effect (EC50).

`CCCc1cc(N2CC[C@H](NCC)C2)nc(Nc2ccc(F)cc2)n1` [Example 18, (S)-4-[3-(ethylamino)pyrrolidin-1-yl]-N-(4-fluorophenyl)-6-propylpyrimidin-2-amine] showed a concentration for a half-maximal effect (EC50) of 0.14 nM.

The compound `CCCc1cc(N2CCC[C@H]2COC)nc(Nc2ccc3cc[nH]c3c2)n1` [Example 189] gave an EC50 of 0.028 nM.

`CCCc1cc(N2CC[C@H](NC(C)CCC(C)C)C2)nc(Nc2cccc(C#N)c2)n1` (stereo partly drawn) [Example 134, (S)-3-{4-[3-(5-methylhexan-2-ylamino)pyrrolidin-1-yl]-6-propylpyrimidin-2-ylamino}benzonitrile] yielded an EC50 of 0.214 nM.

The compound `CCCc1cc(N2CC[C@H](N)C2)nc(Nc2ccc(N)c([N+](=O)[O-])c2)n1` [Example 359] showed a 50% effective concentration (EC50) of 0.0021 nM.

On to `CCCc1cc(N2CCC[C@H]2CO)nc(Nc2cccc(C#N)c2)n1` [Example 194, (S)-3-{4-[2-(hydroxymethyl)pyrrolidin-1-yl]-6-propylpyrimidin-2-ylamino}benzonitrile], for which the EC50 was 0.2 nM.

On to `CCCc1cc(N2CC[C@H](NC(C)=O)C2)nc(Nc2ccc(N)c([N+](=O)[O-])c2)n1` [Example 286, (S)—N-{1-[2-(4-amino-3-nitrophenylamino)-6-propylpyrimidin-4-yl]pyrrolidin-3-yl}acetamide hydrochloride], for which the 50% effective concentration (EC50) turned out to be 0.0047 nM.

Compound `CCCc1cc(N2CC[C@H](NCC3CC3)C2)nc(Nc2ccc(Cl)c([N+](=O)[O-])c2)n1` [Example 372] had a concentration for a half-maximal effect (EC50) of 0.0046 nM.

In the case of `CCCc1cc(N2CC[C@H](NC3CCN(C(=O)c4ccccc4)CC3)C2)nc(Nc2cccc(C#N)c2)n1` [Example 139, (S)-3-{4-[3-(1-benzoylpiperidin-4-ylamino)pyrrolidin-1-yl]-6-propylpyrimidin-2-ylamino}benzonitrile], the EC50 is 0.034 nM.

Take `CCCc1cc(N2CCC[C@H]2CO)nc(Nc2cccc([N+](=O)[O-])c2)n1` [Example 207]: the midpoint of the response, the EC50, lay at 0.083 nM.

For the compound `CCCc1cc(N2CC[C@H](NC)C2)nc(Nc2ccc3cc[nH]c3c2)n1` [Example 121, (S)-N-{4-[3-(methylamino)pyrrolidin-1-yl]-6-propylpyrimidin-2-yl}-1H-indol-6-amine], the response was half-maximal at 0.005 nM (EC50).

In the case of `CCCc1cc(N2CC[C@H](NC(C)=O)C2)nc(Nc2ccc(C)c(Cl)c2)n1` [Example 246], the midpoint of the response, the EC50, lay at 0.04 nM.

`CCCc1cc(N2CC[C@H](NC(=O)C/C=C/c3ccccc3)C2)nc(Nc2cccc(C#N)c2)n1` [Example 79, (S,E)-N-{1-[2-(3-cyanophenylamino)-6-propylpyrimidin-4-yl]pyrrolidin-3-yl}-4-phenylbut-3-enamide] registered an EC50 of 0.44 nM.

Take `CCCCc1cc(N2CC[C@H](NC)C2)nc(Nc2ccc(F)c(N)c2)n1` [Example 456]: a half-maximal effect (EC50) was put at 0.0026 nM.

In turn, `CCCCc1cc(N2CCC[C@H]2C)nc(Nc2ccc(C)c(C#N)c2)n1` [Example 230] came in with an EC50 of 0.047 nM.

Compound `CCCc1cc(N2CC[C@H](NCC3CC3)C2)nc(Nc2ccc(C)c(C#N)c2)n1` [Example 377, (S)-5-{4-[3-(cyclopropylmethylamino)pyrrolidin-1-yl]-6-propylpyrimidin-2-ylamino}-2-methylbenzonitrile] returned an EC50 of 0.0013 nM.

`CCCc1cc(N2CC[C@H](NCc3ccc[nH]3)C2)nc(Nc2ccc(C)c(C#N)c2)n1` [Example 416] displayed an EC50 of 0.0074 nM.

With `CCCc1cc(N2CCC[C@H]2CO)nc(Nc2ccc(N)c(C#N)c2)n1` [Example 215], the EC50 was 0.018 nM.

`CCCCN1CCC(N[C@H]2CCN(c3cc(CCC)nc(Nc4cccc(C#N)c4)n3)C2)CC1` [Example 222]: the EC50 is 0.082 nM.

Compound `CCCc1cc(N2CCC[C@H]2CO)nc(Nc2ccc3cc[nH]c3c2)n1` [Example 185] showed an EC50 of 0.015 nM.

In turn, `CCCc1cc(N2CCC[C@H]2C)nc(Nc2cccc(SC)c2)n1` [Example 314] showed an EC50 of 0.18 nM.

On to `CCCCc1cc(N2CC[C@H](NCC)C2)nc(Nc2ccc(F)c(N)c2)n1` [Example 470], for which the response was half-maximal at 0.0025 nM (EC50).

With `CCCc1cc(N2CC[C@H](NC3CCN(Cc4ccccc4)CC3)C2)nc(Nc2cccc(C#N)c2)n1` [Example 137, (S)-3-{4-[3-(1-benzylpiperidin-4-ylamino)pyrrolidin-1-yl]-6-propylpyrimidin-2-ylamino}benzonitrile], the EC50 came to 0.072 nM.

In turn, `CCCc1cc(N2CCC(NC(C)=O)C2)nc(Nc2ccc(N)c([N+](=O)[O-])c2)n1` (stereo not shown) [Example 293] displayed an EC50 of 0.0043 nM.

Compound `CCCCc1cc(N2CC[C@H](NC)C2)nc(Nc2cc(N)cc(C#N)c2)n1` [Example 451] displayed an EC50 of 0.003 nM.

As for `CCCc1cc(N2CC[C@H](NCC3CCCCC3)C2)nc(Nc2cccc(C#N)c2)n1` [Example 86, (S)-3-{4-[3-(cyclohexylmethylamino)pyrrolidin-1-yl]-6-propylpyrimidin-2-ylamino}benzonitrile], it took 0.039 nM to reach a half-maximal effect (EC50).

The compound `CCCc1cc(N2CC[C@H](NCc3ccc(O)cc3)C2)nc(Nc2ccc(C)c(C#N)c2)n1` [Example 417] registered an EC50 of 0.0051 nM.
